Here are results for 37 compounds from ChEMBL document CHEMBL1148293 (J Med Chem, 2004).

Assay [1] has as its target Kappa-type opioid receptor (Cavia porcellus, UniProt P41144). The experiment in a line: Binding affinity against opioid receptor kappa 1 using [3H]-U-69,593 as radioligand in guinea pig brain membranes. The format is cell membranes.
In another assay the target is Mu-type opioid receptor (Cavia porcellus, UniProt P97266). The experiment in a line: Binding affinity against opioid receptor mu 1 using [3H]DAMGO as radioligand in guinea pig brain membranes. The format is cell membranes.
Chain of Mu-type opioid receptor (P97266 whole entry): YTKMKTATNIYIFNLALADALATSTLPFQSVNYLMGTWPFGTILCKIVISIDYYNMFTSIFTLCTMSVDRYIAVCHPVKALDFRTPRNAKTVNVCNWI
Assay [2] concerns Opioid receptors; mu & delta. The experiment in a line: Selectivity ratio expressed as Ki of delta opioid receptor to that of mu opioid receptor. The format is protein assay. Conditions: Cavia porcellus.
Assay [3] addresses Opioid receptors; delta & kappa (UniProt P41145+P41143). As to the kind of experiment: Selectivity ratio expressed as Ki of delta opioid receptor to that of kappa opioid receptor. It is filed as protein assay. Conditions: Cavia porcellus.

Chain of Kappa-type opioid receptor (P41144 whole entry): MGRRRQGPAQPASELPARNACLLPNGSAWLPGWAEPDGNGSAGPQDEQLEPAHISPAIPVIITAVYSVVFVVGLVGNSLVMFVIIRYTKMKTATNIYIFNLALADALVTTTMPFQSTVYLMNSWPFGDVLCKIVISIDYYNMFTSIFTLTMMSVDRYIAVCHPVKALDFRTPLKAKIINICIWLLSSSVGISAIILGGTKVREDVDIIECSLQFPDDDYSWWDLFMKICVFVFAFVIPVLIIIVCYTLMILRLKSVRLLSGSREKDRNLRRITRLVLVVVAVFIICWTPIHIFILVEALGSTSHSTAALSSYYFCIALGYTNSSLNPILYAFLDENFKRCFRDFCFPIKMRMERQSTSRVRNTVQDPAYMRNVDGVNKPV
Chain of Opioid receptors; delta & kappa (P41143 whole entry, looked up): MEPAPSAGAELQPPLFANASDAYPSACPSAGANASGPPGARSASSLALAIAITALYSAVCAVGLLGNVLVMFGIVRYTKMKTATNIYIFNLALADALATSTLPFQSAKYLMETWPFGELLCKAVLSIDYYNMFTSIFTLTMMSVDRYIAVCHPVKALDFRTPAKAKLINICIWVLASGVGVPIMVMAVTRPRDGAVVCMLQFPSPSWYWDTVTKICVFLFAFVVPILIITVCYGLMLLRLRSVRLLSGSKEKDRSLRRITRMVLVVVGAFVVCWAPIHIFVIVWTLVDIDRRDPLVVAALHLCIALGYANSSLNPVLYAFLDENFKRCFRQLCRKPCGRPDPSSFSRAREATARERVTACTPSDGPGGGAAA
Chain of Opioid receptors; delta & kappa (P41145 whole entry, looked up): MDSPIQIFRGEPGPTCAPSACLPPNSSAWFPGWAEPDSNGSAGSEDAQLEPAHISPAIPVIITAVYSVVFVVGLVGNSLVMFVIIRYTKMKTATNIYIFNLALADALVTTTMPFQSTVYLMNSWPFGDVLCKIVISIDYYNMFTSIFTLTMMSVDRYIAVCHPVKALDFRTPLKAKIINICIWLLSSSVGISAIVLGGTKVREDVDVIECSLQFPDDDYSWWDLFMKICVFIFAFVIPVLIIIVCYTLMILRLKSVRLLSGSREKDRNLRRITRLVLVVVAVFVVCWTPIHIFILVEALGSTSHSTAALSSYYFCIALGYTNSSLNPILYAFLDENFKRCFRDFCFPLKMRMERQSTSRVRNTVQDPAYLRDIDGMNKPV

As to `O=C1c2ccc(O)cc2[C@@]23CCCC[C@H]2[C@@H]1N(CC1CC1)CC3`, the Ki in assay [1] worked out at 24 nM; at Mu-type opioid receptor, 240 nM. The results for the Selectivity in assay [2] and in assay [3] were 0.6 and 6, respectively.

Turning to `CN1CC[C@]23CCCC[C@H]2[C@H]1Cc1ccc(O)cc13`, the Selectivity in assay [2] amounted to 20; in assay [3], 1.8.

On to `O=C1c2ccc(O)cc2[C@@]23CCCC[C@H]2[C@@H]1N(Cc1ccc2ccccc2c1)CC3`, for which the values for the Ki (in assay [1]; on Mu-type opioid receptor) were 780 nM and 2200 nM, respectively. Further, the Selectivity was above 4.5 in assay [2] and above 13 in assay [3].

For `O=C(O)c1ccc2c(c1)[C@@]13CCCC[C@H]1[C@@H](C2=O)N(CC1CCC1)CC3`, the Ki in assay [1] worked out at 59 nM; on Mu-type opioid receptor it was 28 nM. Also, the Selectivity in assay [2] came out at 29; in assay [3] it was 14.

Take `CN1CC[C@]23CCCC[C@H]2[C@H]1Cc1ccc(-c2nnn[nH]2)cc13`: the Ki (in assay [1]; on Mu-type opioid receptor) was 380 nM each time.

As for `C#CCOc1ccc2c(c1)[C@@]13CCCC[C@H]1[C@@H](C2=O)N(CC#C)CC3`, the Ki amounted to 500 nM in assay [1] and 710 nM at Mu-type opioid receptor. For the same compound, the Selectivity in assay [2] was above 14; in assay [3], above 20.

On to `O=C1c2ccc(O)cc2[C@@]23CCCC[C@H]2[C@@H]1N(CCc1ccccc1)CC3`, for which the Ki in assay [1] came out at 7.7 nM; at Mu-type opioid receptor, 0.63 nM. Besides, the values for the Selectivity in assay [2] and in assay [3] were 15 and 1.3, respectively.

In assay [1], `NC(=O)c1ccc2c(c1)[C@@]13CCCC[C@H]1[C@@H](C2)N(CC1CCC1)CC3` showed an inhibition constant Ki of 0.087 nM.

Regarding `Nc1ccc2c(c1)[C@@]13CCCC[C@H]1[C@@H](C2)N(CC1CC1)CC3`, the Ki was determined as 0.18 nM in assay [1] and 1.3 nM at Mu-type opioid receptor. Further, the Selectivity was 120 in assay [2] and 830 in assay [3].

In the case of `NCc1ccc2c(c1)[C@@]13CCCC[C@H]1[C@@H](C2)N(CC1CCC1)CC3`, the Ki in assay [1] is 8.6 nM; on Mu-type opioid receptor, 8.5 nM. In addition, the Selectivity in assay [2] and in assay [3] was 48 each time.

`O=C1c2ccc(OCC3CCC3)cc2[C@@]23CCCC[C@H]2[C@@H]1N(CC1CCC1)CC3`: the Ki in assay [1] was found to be 290 nM; on Mu-type opioid receptor, 800 nM. The Selectivity was above 12 in assay [2] and 35 in assay [3].

With `Nc1ccc2c(c1)[C@@]13CCCC[C@H]1[C@@H](C2=O)N(CC1CCC1)CC3`, the Ki was 4.7 nM in assay [1] and 23 nM at Mu-type opioid receptor. Besides, the Selectivity in assay [2] was determined as 26; in assay [3] it was 130.

On to `N#Cc1ccc2c(c1)[C@@]13CCCC[C@H]1[C@@H](C2)N(CC1CCC1)CC3`, for which the Ki stood at 6 nM in assay [1] and 37 nM on Mu-type opioid receptor. The figures for the Selectivity in assay [2] and in assay [3] were 51 and 320, respectively.

Take `CN1CC[C@]23CCCC[C@H]2[C@H]1Cc1ccc(C#N)cc13`: the Ki in assay [1] is 200 nM; at Mu-type opioid receptor, 20 nM. Moreover, the results for the Selectivity in assay [2] and in assay [3] were above 500 and above 5, respectively.

With `O=C1c2ccc(O)cc2[C@@]23CCCC[C@H]2[C@@H]1N(CCCF)CC3`, the figures for the Ki (in assay [1]; at Mu-type opioid receptor) were 2.5 nM and 20 nM, respectively.

As for `O=C1c2ccc(-c3nnn[nH]3)cc2[C@@]23CCCC[C@H]2[C@@H]1N(CC1CCC1)CC3`, the Ki turned out to be 360 nM in assay [1] and 230 nM at Mu-type opioid receptor.

Turning to `CN1CC[C@]23CCCC[C@H]2[C@H]1Cc1ccc(C(N)=O)cc13`, the Ki is 3.9 nM in assay [1] and 0.073 nM on Mu-type opioid receptor. The Selectivity in assay [2] is 180; in assay [3], 3.3.

For `O=C1c2ccc(O)cc2[C@@]23CCCC[C@H]2[C@@H]1N(CC1CCC1)CC3`, the Ki was determined as 0.48 nM in assay [1] and 3.3 nM on Mu-type opioid receptor. The Selectivity in assay [2] was 79; in assay [3] it was 540.

Consider `COc1ccc2c(c1)[C@@]13CCCC[C@H]1[C@H](NCC3)C2=O`, for which the Ki is 390 nM in assay [1] and 110 nM at Mu-type opioid receptor. Moreover, the figures for the Selectivity in assay [2] and in assay [3] were 0.14 and 0.04, respectively.

As to `CN1CC[C@]23CCCC[C@H]2[C@H]1Cc1ccc(-c2nn[nH]n2)cc13`, the Selectivity in assay [2] and in assay [3] was above 26 in each case.

`O=C(Nc1ccc2c(c1)[C@@]13CCCC[C@H]1[C@@H](C2=O)N(CC1CCC1)CC3)c1ccccc1`: the results for the Ki (in assay [1]; at Mu-type opioid receptor) were 7.7 nM and 4.4 nM, respectively. For the same compound, the Selectivity in assay [2] was determined as 86; in assay [3], 49.

Take `CN1CC[C@]23CCCC[C@H]2[C@H]1Cc1ccc(N)cc13`: the Ki in assay [1] was 110 nM; at Mu-type opioid receptor it was 7.9 nM. Moreover, the Selectivity was 190 in assay [2] and 14 in assay [3].

As for `CN1CC[C@]23CCCC[C@H]2[C@H]1Cc1ccc(CN)cc13`, the Ki was 120 nM in assay [1] and 66 nM on Mu-type opioid receptor. Besides, the Selectivity was above 38 in assay [2] and above 21 in assay [3].

Regarding `Nc1ccc2c(c1)[C@@]13CCCC[C@H]1[C@@H](C2)N(CC1CCC1)CC3`, the Ki in assay [1] was 1.8 nM; at Mu-type opioid receptor it was 3.7 nM. Further, the figures for the Selectivity in assay [2] and in assay [3] were 49 and 100, respectively.

For `CN1CC[C@]23CCCC[C@H]2[C@H]1C(=O)c1ccc(O)cc13`, the Ki was found to be 47 nM in assay [1] and 21 nM at Mu-type opioid receptor. Also, the Selectivity in assay [2] was determined as 57; in assay [3], 26.

Regarding `O=C1c2ccc(-c3nn[nH]n3)cc2[C@@]23CCCC[C@H]2[C@@H]1N(CC1CCC1)CC3`, the results for the Selectivity in assay [2] and in assay [3] were 7.8 and 5, respectively.

Take `NC(=O)c1ccc2c(c1)[C@@]13CCCC[C@H]1[C@@H](C2)N(CC1CC1)CC3`: the Ki in assay [1] came out at 0.18 nM; on Mu-type opioid receptor it was 0.059 nM. The Selectivity in assay [2] was found to be 17; in assay [3], 5.6.

On to `O=C1c2ccc(O)cc2[C@@]23CCCC[C@H]2[C@@H]1NCC3`, for which the Ki in assay [1] is 25 nM; at Mu-type opioid receptor, 20 nM. Besides, the figures for the Selectivity in assay [2] and in assay [3] were above 500 and above 400, respectively.

As for `C#CCN1CC[C@]23CCCC[C@H]2[C@H]1C(=O)c1ccc(O)cc13`, the results for the Ki (in assay [1]; at Mu-type opioid receptor) were 60 nM and 190 nM, respectively. The Selectivity in assay [2] worked out at 12; in assay [3], 38.

Compound `Oc1ccc2c(c1)[C@@]13CCCC[C@H]1[C@@H](C2)N(CC1CCC1)CC3` [BUTORPHAN] showed a Ki in assay [1] of 0.079 nM. In addition, the results for the Selectivity in assay [2] and in assay [3] were 26 and 75, respectively.

As to `c1cc2c(cc1-c1nnn[nH]1)[C@@]13CCCC[C@H]1[C@@H](C2)N(CC1CCC1)CC3`, the Ki in assay [1] turned out to be 850 nM; at Mu-type opioid receptor, 1100 nM.

Consider `NC(=O)c1ccc2c(c1)[C@@]13CCCC[C@H]1[C@@H](C2=O)N(CC1CCC1)CC3`, for which the Ki in assay [1] was 2.7 nM; at Mu-type opioid receptor, 2.5 nM. Further, the Selectivity in assay [2] worked out at 20; in assay [3] it was 19.

Take `CC(C)=CCN1CC[C@]23CCCC[C@H]2[C@H]1C(=O)c1ccc(O)cc13`: the Ki in assay [1] was 7.4 nM; on Mu-type opioid receptor, 19 nM. Moreover, the Selectivity in assay [2] came out at 58; in assay [3], 150.

Consider `O=C1c2ccc(O)cc2[C@@]23CCCC[C@H]2[C@@H]1N(CCF)CC3`, for which the Ki in assay [1] worked out at 250 nM; on Mu-type opioid receptor, 560 nM. Also, the Selectivity in assay [2] was above 18; in assay [3], above 40.

For `O=C1c2ccc(O)cc2[C@@]23CCCC[C@H]2[C@@H]1N(C[C@@H]1CCCO1)CC3`, the Ki turned out to be 0.18 nM in assay [1] and 0.38 nM on Mu-type opioid receptor. For the same compound, the figures for the Selectivity in assay [2] and in assay [3] were 2.6 and 5.6, respectively.

`N#Cc1ccc2c(c1)[C@@]13CCCC[C@H]1[C@@H](C2=O)N(CC1CCC1)CC3` registered a Ki in assay [1] of 400 nM.

Regarding `c1cc2c(cc1-c1nn[nH]n1)[C@@]13CCCC[C@H]1[C@@H](C2)N(CC1CCC1)CC3`, the results for the Selectivity in assay [2] and in assay [3] were above 9 and above 12, respectively.
